Results reported in paper PMC11005723, “Development of Complementary Photo‐arginine/lysine to Promote Discovery of Arg/Lys hPTMs Interactomes” (Advanced Science, 2024).

Key:
[1] = biological target: T1, PHD domain of UHRF1 (UHRF1PHD) (Homo sapiens, UniProt Q96T88); assay: ITC binding of H3 peptides to UHRF1PHD; details: 25 °C, 19 injections of peptide into protein, dz peptides carry pre‐installed biotin, done two times
T1 construct: the PHD domain of UHRF1 (UHRF1PHD)
T1 sequence (Q96T88 310-366 limits assumed): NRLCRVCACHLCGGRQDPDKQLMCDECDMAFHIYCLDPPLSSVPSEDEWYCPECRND
Description: Experiments were performed at 25 °C on a MicroCal PEAQ‐ITC automated (Malvern Instruments). Protein was loaded in the cell was titrated with 19 injections of peptides. The binding isotherm was fit with MicroCal PEAQ‐ITC Analysis software. The assay was done two times to confirm results.

[2] = biological target: T2, tandem PHD domain of DPF2 (DPF2PHD) (Homo sapiens, UniProt Q92785); assay: ITC binding of native H3 peptides to DPF2PHD; details: 25 °C, native H3_1‐15 peptides without diazirine and biotin, n = 2, representative data
T2 construct: His‐DPF2PHD (residues 270–391) domain in pET28‐MHL vector; His (N); made in house; host or cells: Escherichia coli BL21 (DE3)
T2 sequence (Q92785 270-391): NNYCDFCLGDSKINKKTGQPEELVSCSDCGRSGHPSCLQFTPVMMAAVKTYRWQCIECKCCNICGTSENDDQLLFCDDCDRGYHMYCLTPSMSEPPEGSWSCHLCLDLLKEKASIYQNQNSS

[3] = biological target: T3, RBBP4 (Homo sapiens, UniProt Q09028); assay: ITC binding of native H3 peptides to RBBP4; details: H3R2me2a versus H3R2, from ITC Kd
T3 construct: DNA fragment encoding RBBP4/7 (1‐ 425) was cloned into pFBOH‐LIC donor plasmid; His (inferred from Ni-NTA purification; vector pFBOH-LIC); made in house; host or cells: sf9 insect cells (baculovirus)
T3 sequence (Q09028 whole entry, the tested form may be a part): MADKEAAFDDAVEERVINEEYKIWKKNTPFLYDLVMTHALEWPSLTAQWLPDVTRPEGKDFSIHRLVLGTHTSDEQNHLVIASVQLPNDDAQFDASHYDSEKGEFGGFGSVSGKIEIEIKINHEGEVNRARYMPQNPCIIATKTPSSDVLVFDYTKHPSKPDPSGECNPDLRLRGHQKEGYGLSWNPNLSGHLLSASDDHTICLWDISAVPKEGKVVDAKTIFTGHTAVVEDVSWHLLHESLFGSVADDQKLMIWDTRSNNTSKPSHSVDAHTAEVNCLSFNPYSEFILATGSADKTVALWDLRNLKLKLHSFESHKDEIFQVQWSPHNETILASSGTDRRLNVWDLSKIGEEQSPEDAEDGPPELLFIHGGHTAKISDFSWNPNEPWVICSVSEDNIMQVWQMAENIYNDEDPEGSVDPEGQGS
Description: (§1) DNA fragment encoding RBBP4/7 (1‐ 425) was cloned into pFBOH‐LIC donor plasmid. The resulting plasmid was transformed into DH10Bac Competent E. coli cells (Invitrogen) and a recombinant Bacmid DNA was purified and followed by a recombinant baculovirus generation in sf9 insect cells. sf9 cells grown in HyQ SFX insect serum‐free medium (Thermo Scientific) were infected with 10 mL of P3 viral stocks per 1 L of suspension cell culture and incubated at 27 °C using a platform shaker set at 150 rpm. The cells were harvested by centrifugation (4000 rpm for 10 min at 4 °C) after 72 h of post‐infection time when viability dropped to 70–80%. […] Fractions were assessed by SDS‐PAGE electrophoresis and those containing pure protein were pooled, concentrated, and flash‐frozen for storage at −80 °C. […]

[4] = biological target: T4, RBBP7 (Homo sapiens, UniProt Q16576); assay: ITC binding of native H3 peptides to RBBP7; details: H3R2me2a versus H3R2, from ITC Kd
T4 construct: DNA fragment encoding RBBP4/7 (1‐ 425) was cloned into pFBOH‐LIC donor plasmid; His (inferred from Ni-NTA purification; vector pFBOH-LIC); made in house; host or cells: sf9 insect cells (baculovirus)
T4 sequence (Q16576 whole entry, the tested form may be a part): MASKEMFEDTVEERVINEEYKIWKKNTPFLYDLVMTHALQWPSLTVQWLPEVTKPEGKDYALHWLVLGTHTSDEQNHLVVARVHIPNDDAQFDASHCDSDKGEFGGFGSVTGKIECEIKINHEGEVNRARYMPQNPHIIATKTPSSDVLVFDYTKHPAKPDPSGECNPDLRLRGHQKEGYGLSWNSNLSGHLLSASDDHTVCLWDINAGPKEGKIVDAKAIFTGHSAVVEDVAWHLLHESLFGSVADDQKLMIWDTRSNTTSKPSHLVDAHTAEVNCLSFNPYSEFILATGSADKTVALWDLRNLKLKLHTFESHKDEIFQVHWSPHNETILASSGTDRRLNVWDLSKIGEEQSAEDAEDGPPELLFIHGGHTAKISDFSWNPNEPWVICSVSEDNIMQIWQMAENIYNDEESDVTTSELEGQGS
Description: as §1

[5] = biological target: T5, PWWP domain of MSH6 (MSH6PWWP) (Homo sapiens, UniProt P52701); assay: ITC binding of H3R2me2a to MSH6PWWP; details: 25 °C
T5 construct: His‐MSH6PWWP (residues 87–198) domain in pET28‐MHL vector; His (N); made in house; host or cells: Escherichia coli BL21 (DE3)
T5 sequence (P52701 87-198): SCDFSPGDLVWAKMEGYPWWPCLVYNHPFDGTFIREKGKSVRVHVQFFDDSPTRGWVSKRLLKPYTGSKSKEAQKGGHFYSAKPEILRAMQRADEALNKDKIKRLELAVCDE
Description: His‐MSH6PWWP (residues 87–198) domain in pET28‐MHL vector. His‐ MSH6PWWP were expressed in Escherichia coli strain BL21 (DE3) (Novagen) with 0.5 mM IPTG induction at 16 °C in LB medium. After cell lysis by French Press Cell Disrupter (Thermo) and centrifugation, the supernatant was applied to a HisTrap (GE Healthcare) nickel column, and the bound protein was eluted with a linear imidazole gradient from 20 to 500 mM. And further purified by a HiLoad 16/60 Superdex 75 (GE Healthcare) gel filtration column. The pure protein were pooled and dialyzed in buffer (100 mM NaCl, 20 mM Tris, pH 7.5) with Slide‐A‐Lyzer (10000 MWCO). At last, the dialyzed protein were concentrated with to 5 mg mL^−1 and stored in −80 °C freezer for future use. Experiments were performed at 25 °C on a MicroCal PEAQ‐ITC automated (Malvern Instruments). Protein was loaded in the cell was titrated with 19 injections of peptides. The binding isotherm was fit with MicroCal PEAQ‐ITC Analysis software. The assay was done two times to confirm results.

SMILES	Kd [1] [µM]	Kd (DPF2PHD) [2]	decrease in binding affinity by asymmetric methylation (RBBP4) [3]	decrease in binding affinity by asymmetric methylation (RBBP7) [4]	interaction with MSH6PWWP via ITC [5]
C[C@H](N)C(=O)N[C@@H](CCCNC(=N)N)C(=O)N[C@H](C(=O)N[C@@H](CCC1(CN)N=N1)C(=O)N[C@@H](CCC(N)=O)C(=O)N[C@H](C(=O)N[C@@H](C)C(=O)N[C@@H](CCCNC(=N)N)C(=O)N[C@@H](CCCCN)C(=O)N[C@@H](CO)C(=O)N[C@H](C(=O)NCC(=O)NCC(=O)N[C@@H](CCCCNC(=O)CCCC[C@@H]1SC[C@@H]2NC(=O)N[C@@H]21)C(=O)N[C@@H](C)C(N)=O)[C@@H](C)O)[C@@H](C)O)[C@@H](C)O [H3K4‐dz]	6.4				
C[C@H](N)C(=O)N[C@@H](CCCNC(=N)N(C)C)C(=O)N[C@H](C(=O)N[C@@H](CCC1(CN)N=N1)C(=O)N[C@@H](CCC(N)=O)C(=O)N[C@H](C(=O)N[C@@H](C)C(=O)N[C@@H](CCCNC(=N)N)C(=O)N[C@@H](CCCCN)C(=O)N[C@@H](CO)C(=O)N[C@H](C(=O)NCC(=O)NCC(=O)N[C@@H](CCCCNC(=O)CCCC[C@@H]1SC[C@@H]2NC(=O)N[C@@H]21)C(=O)N[C@@H](C)C(N)=O)[C@@H](C)O)[C@@H](C)O)[C@@H](C)O [H3R2me2a]		no binding affinity detected	three–fourfold decrease	three–fourfold decrease	undetectable
C[C@H](N)C(=O)N[C@@H](CC1(CNC(=N)N)N=N1)C(=O)N[C@H](C(=O)N[C@@H](CCCCN)C(=O)N[C@@H](CCC(N)=O)C(=O)N[C@H](C(=O)N[C@@H](C)C(=O)N[C@@H](CCCNC(=N)N)C(=O)N[C@@H](CCCCN)C(=O)N[C@@H](CO)C(=O)N[C@H](C(=O)NCC(=O)NCC(=O)N[C@@H](CCCCNC(=O)CCCC[C@@H]1SC[C@@H]2NC(=O)N[C@@H]21)C(=O)N[C@@H](C)C(N)=O)[C@@H](C)O)[C@@H](C)O)[C@@H](C)O [H3R2‐dz]	10.6				
